Source: patent US20240299452A1, “Rapamycin and Cell Therapy” (Innovative Cellular Therapeutics Holdings, Ltd., priority 2023, published 2024)

Assays:
[1] = taken orally at a dose of 2 mg/day; read-out: maximum blood concentration (Cmax); cited from earlier work
[2] = test system: CD19 CAR T cells stimulated with nalm6 cells; test: CAR T cell proliferation after 96 hours with rapamycin; type: cell-based; conditions: nalm6 stimulation, CD4+ and CD8+ subsets
Protocol: The following study investigated the effects of rapamycin on CAR T cells and tumor cell lines. In the first part of the experiment, cytokine release assays were performed. […] In the same experiments, T cell proliferation was assessed to determine whether rapamycin affects the expansion of CAR T cells. […] In the last part of the study, rapamycin was directly applied to two types of tumor cell lines, PC3 and LNCAP, to assess its impact on tumor cell proliferation. […] It can decrease the proliferation of tumor cells, aligning with clinical observations.
The bar graphs depict the proliferation rates of CAR T cells, specifically CD4+ and CD8+ subsets, after 96 hours of stimulation with CD19 antigen and varying concentrations of rapamycin. […] CD8: The right graph indicates the percentage of proliferating CD8+ CAR T cells under the same treatment conditions as CD4+.

Structure (SMILES): CO[C@H]1C[C@@H]2CC[C@@H](C)[C@@](O)(O2)C(=O)C(=O)N2CCCC[C@H]2C(=O)O[C@H]([C@H](C)C[C@@H]2CC[C@@H](O)[C@H](OC)C2)CC(=O)[C@H](C)/C=C(\C)[C@@H](O)[C@@H](OC)C(=O)[C@H](C)C[C@H](C)/C=C/C=C/C=C/1C [rapamycin, Rapamycin]
- Cmax [1]: 16 nM
- CAR T cell proliferation [2]: not inhibited
